Data: patent US20100120752A1, “MUSCARINIC AGONISTS TO TREAT IMPULSE CONTROL DISORDERS” (Solvay Pharmaceuticals, B.V., priority 2007, published 2010)

Columns and labels:
Male Wistar rats = assay: 5-Choice Serial Reaction Time task, xanomeline or desmethylclozapine alone; assay type: in vivo, rat; details: for number of anticipatory responses / number of correct responses / number of fault responses / number of missed responses / percentage of correct responses / persevering responses / total number of responses: ±S.E.M.
From the text: (§1) Male Wistar rats weighing 330-450 g (Harlan, The Netherlands) were housed in pairs under a 12-h light/dark cycle (lights off at 7:00 a.m.) and had daily access to a limited amount of food that kept their body weight at approximately 85% of the free feeding weight. Water was available ad libitum. All procedures were in compliance with the European Communities Council Directive of Nov. 24, 1986 (86/609 EEC).
(§2) Standard 5-CSRT boxes from MED associates Inc. Georgia, Vt. US were used. The curved wall of the chamber contained five 1.6 cm2 holes, 2.2 cm deep, 2 cm above floor level. […] In every hole a yellow stimulus light was presented. A food dispenser was located at the opposite wall. The box was illuminated by a 28 Volt 100 mA house light. The 5-CSRT boxes were placed in sound attenuating cubicles. On-line control of the apparatus and data collection were performed by a MED-PC experimental apparatus programming system (Tatham, 1989), running on a Dell Optiplex GX1 PC.
(§3) Rats were first trained to collect reinforcement pellets from the food dispenser and to collect reinforcements that were placed in the 5 holes in order to habituate the animals to the 5-CSRT task apparatus. Next, training of the 5-CSRT task started. These sessions started by illumination of the light in one of the holes for 30 seconds (stimulus duration). A response by the rat into the illuminated hole or a response in that particular hole for a short period of time after the illumination (the limited hold 60 sec) was rewarded with the delivery of a food pellet, termination of the trial and a correct response was recorded. The light stimulus was presented in each of the holes 20 times during a session (total of 100 presentations), and the order of presentations was randomized. […] After termination of the trial a variable inter-trial interval was started (1, 3, 5, 7 or 9 sec) after which the next trial was started. Upon reaching a 75% correct performance level the duration of illumination of the light stimulus was reduced until a presentation of 0.5 sec (from 30 to 20, 10, 5, 2, 1, 0.9; 0.8; 0.7; 0.6; 0.5.) and a limited hold of 5 sec (in three steps from 30 to 20, 10 and 5 sec), was reached. (Robbins, 1993).
(§4) The following parameters were measured (Muir, 1996):
(§5) Accuracy: the percentage correct responses divided by the total responses made.
(§6) Errors of omission: the number of missed stimulus presentations.
(§7) Correct responses: the number of correct responses.
(§8) Fault responses: the number of responses in the wrong hole.
(§9) Anticipatory responses: the number of premature responses made preceding the presentation of the light stimulus.
(§10) Persevering responses: responses emitted after an incorrect or correct response.
Xanomeline, a mixed muscarine-M1 and muscarine-M4 agonist, and desmethylclozapine, a muscarinic-M1 agonist and muscarinic-M4 antagonist, were each tested in a Latin hexagon design, meaning that each rat received all test-dosages (0, 1, 3 and 10 mg/kg i.p.) in a random order.

[1] = test system: MK801 induced increase of anticipatory responses of rats; assay: 5-Choice Serial Reaction Time task, interaction studies against MK801; assay type: in vivo, rat; details: for % correct resp / nr anticipatory resp / nr of correct resp / nr of fault resp / nr of missed resp / persevering resp / total nr of resp: ±SEM
From the text: as §1, §2, §3, §4, §5, §6, §7, §8, §9, §10
Both xanomeline and desmethylclozapine were each tested in the same dose range against 0.05 mg/kg (s.c.) MK801, a dose shown to elicit unequivocal impulsive behavior (see Table 1).

[2] = 1 mg/kg against 0.05 mg/kg (s.c.) MK801
[3] = 3 mg/kg against 0.05 mg/kg (s.c.) MK801
[4] = 10 mg/kg against 0.05 mg/kg (s.c.) MK801

Clc1ccc2c(c1)N=C(N1CCNCC1)c1ccccc1N2 [desmethylclozapine]
number of anticipatory responses (Male Wistar rats; 1 mg/kg i.p.): 50.2 ± 4.9
number of correct responses (Male Wistar rats; 1 mg/kg i.p.): 52.2 ± 3.2
number of fault responses (Male Wistar rats; 1 mg/kg i.p.): 19.4 ± 2.2
number of missed responses (Male Wistar rats; 1 mg/kg i.p.): 28.4 ± 3.2
percentage of correct responses (Male Wistar rats; 1 mg/kg i.p.): 72.9 ± 3.1%
persevering responses (Male Wistar rats; 1 mg/kg i.p.): 7.8 ± 1.4
total number of responses (Male Wistar rats; 1 mg/kg i.p.): 71.6 ± 3.2
number of anticipatory responses (Male Wistar rats; 3 mg/kg i.p.): 51.3 ± 7.5
number of correct responses (Male Wistar rats; 3 mg/kg i.p.): 51.9 ± 3.1
number of fault responses (Male Wistar rats; 3 mg/kg i.p.): 20.1 ± 2.2
number of missed responses (Male Wistar rats; 3 mg/kg i.p.): 28.0 ± 2.2
percentage of correct responses (Male Wistar rats; 3 mg/kg i.p.): 71.9 ± 3.2%
persevering responses (Male Wistar rats; 3 mg/kg i.p.): 8.8 ± 1.2
total number of responses (Male Wistar rats; 3 mg/kg i.p.): 72.0 ± 2.2
number of anticipatory responses (Male Wistar rats; 10 mg/kg i.p.): 34.5 ± 3.9
number of correct responses (Male Wistar rats; 10 mg/kg i.p.): 48.5 ± 3.9
number of fault responses (Male Wistar rats; 10 mg/kg i.p.): 17.5 ± 2.0
number of missed responses (Male Wistar rats; 10 mg/kg i.p.): 34.0 ± 2.9
percentage of correct responses (Male Wistar rats; 10 mg/kg i.p.): 72.6 ± 3.6%
persevering responses (Male Wistar rats; 10 mg/kg i.p.): 5.5 ± 0.9
total number of responses (Male Wistar rats; 10 mg/kg i.p.): 66.0 ± 2.9
effect on number of anticipatory responses (Male Wistar rats; at 10 mg/kg, table 2): reduced
% correct resp [1, 2]: 67.2 ± 2.6%
nr anticipatory resp [1, 2]: 141.8 ± 20.8
nr of correct resp [1, 2]: 52.5 ± 3.4
nr of fault resp [1, 2]: 25.1 ± 1.9
nr of missed resp [1, 2]: 22.4 ± 3.1
persevering resp [1, 2]: 24.8 ± 2.8
total nr of resp [1, 2]: 77.6 ± 3.1
% correct resp [1, 3]: 69.6 ± 2.6%
nr anticipatory resp [1, 3]: 104.3 ± 18.4
nr of correct resp [1, 3]: 55.2 ± 2.8
nr of fault resp [1, 3]: 24.4 ± 2.4
nr of missed resp [1, 3]: 20.4 ± 3.6
persevering resp [1, 3]: 16.3 ± 2.1
total nr of resp [1, 3]: 79.6 ± 3.6
% correct resp [1, 4]: 70.1 ± 3.1%
nr anticipatory resp [1, 4]: 78.6 ± 14.5
nr of correct resp [1, 4]: 52.7 ± 3.9
nr of fault resp [1, 4]: 21.6 ± 2.0
nr of missed resp [1, 4]: 25.8 ± 3.7
persevering resp [1, 4]: 17.3 ± 3.4
total nr of resp [1, 4]: 74.3 ± 3.7
effect on increase in anticipatory responses induced by MK801 ([1]; table 3): antagonize
effect on increase in persevering responses induced by MK801 ([1]; table 3): antagonize
